Here are results for 29 molecules from patent US9822118B2, “Bicyclic heteroaryl urea, thiourea, guanidine and cyanoguanidine compounds as TrkA kinase inhibitors” (Array BioPharma Inc., priority 2012, dated 2017).

By pIC50 is commonly meant the negative decadic logarithm of the IC50, by convention in mol/L.

The structures appear in SMILES notation. pIC50: −log10 of the molar value.

T1 sequence (P04629 440-796 limits assumed): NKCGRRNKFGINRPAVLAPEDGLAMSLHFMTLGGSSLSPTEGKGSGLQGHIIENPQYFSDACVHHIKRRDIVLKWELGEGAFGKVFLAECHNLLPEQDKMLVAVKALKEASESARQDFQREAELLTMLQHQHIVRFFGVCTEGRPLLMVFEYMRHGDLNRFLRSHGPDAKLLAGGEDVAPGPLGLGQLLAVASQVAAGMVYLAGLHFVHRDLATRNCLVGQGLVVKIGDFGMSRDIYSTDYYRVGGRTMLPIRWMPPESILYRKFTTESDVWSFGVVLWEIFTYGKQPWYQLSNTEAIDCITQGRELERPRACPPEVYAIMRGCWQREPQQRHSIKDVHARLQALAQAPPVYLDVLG

The assay addresses T1, recombinant human TrkA (Homo sapiens, UniProt P04629).
T1 construct: 6HIS tagged cytoplasmic domain from Invitrogen, Catalog No. PV3144; purchased Invitrogen PV3144
Briefly: TrkA LanthaScreen Eu Kinase Binding Assay. The note with it: averaged IC50; TR-FRET binding assay, 60 min at 22° C.; read-out: TrkA Enzyme IC50. The procedure:
TrkA binding activity was determined in a TrkA LanthaScreen™ Eu Kinase Binding Assay. 5 nM His-tagged recombinant human TrkA (6HIS tagged cytoplasmic domain from Invitrogen, Catalog No. PV3144) was incubated with 4 nM Alexa-Fluor® Tracer 236 (Invitrogen Cat. No. PV5592), 2 nM biotinylated anti-His (Invitrogen Cat. No. PV6090), and 2 nM europium-labeled Streptavidin (Invitrogen Cat. No. PV5899), in buffer (25 mM MOPS, pH 7.5, 5 mM MgCl2, 0.005% Triton X-100). Three fold serial dilutions of compounds of the invention in DMSO were added to a final percentage of 2% DMSO. After 60-minute incubation at 22° C., the reaction was measured using the EnVision multimode plate reader (PerkinElmer) via TR-FRET dual wavelength detection at […]. The percent of control was calculated using a ratiometric emission factor. The IC50 values were determined by fitting a four parameter model to the percent of control data.
Table A provides averaged IC50 values for compounds of the invention when tested in the assay of Example A, where A represents an averaged IC50 value <100 nM; and B represents an averaged IC50 value from 100 to 1,000 nM.
As to `Cc1nccn2c(NC(=O)Nc3c4c(nn3-c3ccccc3)CCC4)c(-c3ccccc3)nc12` [Example 1, 1-(8-methyl-2-phenylimidazo[1,2-a]pyrazin-3-yl)-3-(2-phenyl-2,4,5,6-tetrahydrocyclopenta[c]pyrazol-3-yl)urea], the pIC50 is > 7.00.
As to `CCOc1nn(-c2ccccc2)c(NC(=O)Nc2c(-c3ccccc3)nc3c(C)nccn23)c1C` [Example 2, 1-(3-ethoxy-4-methyl-1-phenyl-1H-pyrazol-5-yl)-3-(8-methyl-2-phenylimidazo[1,2-a]pyrazin-3-yl)urea], the pIC50 was > 7.00.
The figure for `CCOc1nn(-c2ccccc2)c(NC(=O)Nc2c(-c3ccccc3)nc3c(C(F)(F)F)cccn23)c1C` [Example 3, 1-(3-ethoxy-4-methyl-1-phenyl-1H-pyrazol-5-yl)-3-(2-phenyl-8-(trifluoromethyl)imidazo[1,2-a]pyridin-3-yl)urea] is > 7.00; for `CCOc1nn(-c2ccccc2)c(NC(=O)Nc2c(-c3ccccc3)nc3c(Cl)cccn23)c1C` [Example 4, 1-(8-chloro-2-phenylimidazo[1,2-a]pyridin-3-yl)-3-(3-ethoxy-4-methyl-1-phenyl-1H-pyrazol-5-yl)urea] it is > 7.00.
The value for `CCOc1nn(-c2ccccc2)c(NC(=O)Nc2c(-c3ccccc3)nc3ccccn23)c1C` [Example 5, 1-(3-ethoxy-4-methyl-1-phenyl-1H-pyrazol-5-yl)-3-(2-phenylimidazo[1,2-a]pyridin-3-yl)urea] was 6.00 to 7.00.
`CCOc1nn(-c2ccccc2)c(NC(=O)Nc2c(-c3ccccc3)nc3c(F)cccn23)c1C` [Example 6, 1-(3-ethoxy-4-methyl-1-phenyl-1H-pyrazol-5-yl)-3-(8-fluoro-2-phenylimidazo[1,2-a]pyridin-3-yl)urea]: the pIC50 was 6.00 to 7.00.
In the case of `CCOc1nn(-c2ccccc2)c(NC(=O)Nc2c(-c3ccccc3)nc3c(C)cccn23)c1C` [Example 7, 1-(3-ethoxy-4-methyl-1-phenyl-1H-pyrazol-5-yl)-3-(8-methyl-2-phenylimidazo[1,2-a]pyridin-3-yl)urea], the pIC50 is > 7.00.
The figure for `Cc1nn(-c2ccccc2)c(NC(=O)Nc2c(-c3ccccc3)nc3c(C)nccn23)c1C` [Example 8, 1-(3,4-dimethyl-1-phenyl-1H-pyrazol-5-yl)-3-(8-methyl-2-phenylimidazo[1,2-a]pyrazin-3-yl)urea] is > 7.00.
The value for `Cc1ccc(NC(=O)Nc2c(-c3ccccc3)nc3c(C)nccn23)c(-c2ccccc2)n1` [Example 9, 1-(8-methyl-2-phenylimidazo[1,2-a]pyrazin-3-yl)-3-(6-methyl-2-phenylpyridin-3-yl)urea] was 6.00 to 7.00; that for `Cc1c(OC[C@H](O)CO)nn(-c2ccccc2)c1NC(=O)Nc1c(-c2ccccc2)nc2c(C)cccn12` [Example 10, (R)-1-(3-(2,3-dihydroxypropoxy)-4-methyl-1-phenyl-1H-pyrazol-5-yl)-3-(8-methyl-2-phenylimidazo[1,2-a]pyridin-3-yl)urea] was 6.00 to 7.00; that for `Cc1c(OC[C@H](C)O)nn(-c2ccccc2)c1NC(=O)Nc1c(-c2ccccc2)nc2c(C)cccn12` [Example 11, (S)-1-(3-(2-hydroxypropoxy)-4-methyl-1-phenyl-1H-pyrazol-5-yl)-3-(8-methyl-2-phenylimidazo[1,2-a]pyridin-3-yl)urea] was 6.00 to 7.00.
The figure for `Cc1cccn2c(NC(=O)Nc3c4c(nn3-c3ccccc3)CCC4)c(-c3ccccc3)nc12` [Example 12, 1-(8-methyl-2-phenylimidazo[1,2-a]pyridin-3-yl)-3-(2-phenyl-2,4,5,6-tetrahydrocyclopenta[c]pyrazol-3-yl)urea] is > 7.00; for `O=C(Nc1c2c(nn1-c1ccccc1)CCC2)Nc1c(-c2ccccc2)nc2c(C(F)(F)F)cccn12` [Example 13, 1-(2-phenyl-2,4,5,6-tetrahydrocyclopenta[c]pyrazol-3-yl)-3-(2-phenyl-8-(trifluoromethyl)imidazo[1,2-a]pyridin-3-yl)urea] it is > 7.00; for `Cc1cccn2c(NC(=O)Nc3c4c(nn3-c3ccccc3)COC4)c(-c3ccccc3)nc12` [Example 14, 1-(8-methyl-2-phenylimidazo[1,2-a]pyridin-3-yl)-3-(2-phenyl-4,6-dihydro-2H-furo[3,4-c]pyrazol-3-yl)urea] it is > 7.00.
In the case of `CCOc1nn(-c2ccccc2)c(NC(=O)Nc2c(-c3ccccc3)nc3c(Br)cccn23)c1C` [Example 15, 1-(8-bromo-2-phenylimidazo[1,2-a]pyridin-3-yl)-3-(3-ethoxy-4-methyl-1-phenyl-1H-pyrazol-5-yl)urea], the pIC50 was > 7.00.
The figure for `CCOc1nn(-c2ccccc2)c(NC(=O)Nc2c(-c3ccc(OC)nc3)nc3c(C)cccn23)c1C` [Example 16, 1-(3-ethoxy-4-methyl-1-phenyl-1H-pyrazol-5-yl)-3-(2-(6-methoxypyridin-3-yl)-8-methylimidazo[1,2-a]pyridin-3-yl)urea] is 6.00 to 7.00.
The figure for `Cc1cccn2c(NC(=O)Nc3c4c(nn3-c3ccccc3)CS(=O)(=O)C4)c(-c3ccccc3)nc12` [Example 17, 1-(5,5-dioxido-2-phenyl-4,6-dihydro-2H-thieno[3,4-c]pyrazol-3-yl)-3-(8-methyl-2-phenylimidazo[1,2-a]pyridin-3-yl)urea] is > 7.00.
For `O=C(Nc1c2c(nn1-c1ccccc1)CS(=O)(=O)C2)Nc1c(-c2ccccc2)nc2c(C(F)(F)F)cccn12` [Example 18, 1-(5,5-dioxido-2-phenyl-4,6-dihydro-2H-thieno[3,4-c]pyrazol-3-yl)-3-(2-phenyl-8-(trifluoromethyl)imidazo[1,2-a]pyridin-3-yl)urea], the pIC50 is > 7.00.
The value for `Cc1cccn2c(NC(=O)Nc3c4c(nn3-c3ccccc3)CCCC4)c(-c3ccccc3)nc12` [Example 19, 1-(8-methyl-2-phenylimidazo[1,2-a]pyridin-3-yl)-3-(2-phenyl-4,5,6,7-tetrahydro-2H-indazol-3-yl)urea] was > 7.00; that for `O=C(Nc1c2c(nn1-c1ccccc1)CCCC2)Nc1c(-c2ccccc2)nc2c(C(F)(F)F)cccn12` [Example 20, 1-(2-phenyl-4,5,6,7-tetrahydro-2H-indazol-3-yl)-3-(2-phenyl-8-(trifluoromethyl)imidazo[1,2-a]pyridin-3-yl)urea] was > 7.00; that for `COc1nn(-c2ccccc2)c(NC(=O)Nc2c(-c3ccccc3)nc3c(C)cccn23)c1C` [Example 21, 1-(3-methoxy-4-methyl-1-phenyl-1H-pyrazol-5-yl)-3-(8-methyl-2-phenylimidazo[1,2-a]pyridin-3-yl)urea] was > 7.00.
Turning to `COc1nn(-c2ccccc2)c(NC(=O)Nc2c(-c3ccccc3)nc3c(C(F)(F)F)cccn23)c1C` [Example 22, 1-(3-methoxy-4-methyl-1-phenyl-1H-pyrazol-5-yl)-3-(2-phenyl-8-(trifluoromethyl)imidazo[1,2-a]pyridin-3-yl)urea], the pIC50 is > 7.00.
The figure for `CCOc1nn(-c2ccccc2)c(NC(=O)Nc2c(-c3ccc(OC)cc3)nc3c(C)cccn23)c1C` [Example 23, 1-(3-ethoxy-4-methyl-1-phenyl-1H-pyrazol-5-yl)-3-(2-(4-methoxyphenyl)-8-methylimidazo[1,2-a]pyridin-3-yl)urea] is 6.00 to 7.00.
On to `COc1ccc(-c2nc3c(C)cccn3c2NC(=O)Nc2c3c(nn2-c2ccccc2)CS(=O)(=O)C3)cc1` [Example 24, 1-(5,5-dioxido-2-phenyl-4,6-dihydro-2H-thieno[3,4-c]pyrazol-3-yl)-3-(2-(4-methoxyphenyl)-8-methylimidazo[1,2-a]pyridin-3-yl)urea], for which the pIC50 is 6.00 to 7.00.
The value for `Cc1c(OCC(CO)CO)nn(-c2ccccc2)c1NC(=O)Nc1c(-c2ccccc2)nc2c(C(F)(F)F)cccn12` [Example 25, 1-(3-(3-hydroxy-2-(hydroxymethyl)propoxy)-4-methyl-1-phenyl-1H-pyrazol-5-yl)-3-(2-phenyl-8-(trifluoromethyl)imidazo[1,2-a]pyridin-3-yl)urea] was > 7.00; that for `Cc1c(OCC(C)(C)O)nn(-c2ccccc2)c1NC(=O)Nc1c(-c2ccccc2)nc2c(C(F)(F)F)cccn12` [Example 26, 1-(3-(2-hydroxy-2-methylpropoxy)-4-methyl-1-phenyl-1H-pyrazol-5-yl)-3-(2-phenyl-8-(trifluoromethyl)imidazo[1,2-a]pyridin-3-yl)urea] was > 7.00.
The figure for `Cc1c(OC[C@@H](C)O)nn(-c2ccccc2)c1NC(=O)Nc1c(-c2ccccc2)nc2c(C(F)(F)F)cccn12` [Example 27, (R)-1-(3-(2-hydroxypropoxy)-4-methyl-1-phenyl-1H-pyrazol-5-yl)-3-(2-phenyl-8-(trifluoromethyl)imidazo[1,2-a]pyridin-3-yl)urea] is > 7.00; for `Cc1c(OC[C@H](O)CO)nn(-c2ccccc2)c1NC(=O)Nc1c(-c2ccccc2)nc2c(C(F)(F)F)cccn12` [Example 28, (R)-1-(3-(2,3-dihydroxypropoxy)-4-methyl-1-phenyl-1H-pyrazol-5-yl)-3-(2-phenyl-8-(trifluoromethyl)imidazo[1,2-a]pyridin-3-yl)urea] it is > 7.00; for `Cc1c(OC[C@@H](O)CO)nn(-c2ccccc2)c1NC(=O)Nc1c(-c2ccccc2)nc2c(C(F)(F)F)cccn12` [Example 29, (S)-1-(3-(2,3-dihydroxypropoxy)-4-methyl-1-phenyl-1H-pyrazol-5-yl)-3-(2-phenyl-8-(trifluoromethyl)imidazo[1,2-a]pyridin-3-yl)urea] it is > 7.00.
